# Measurements as given in patent US20220151230A1, “SPECIFICALLY SUBSTITUTED 3-(2-HALOGEN-6-ALKYL-4-PROPINYLPHENYL)-3-PYRROLIN-2-ONES AND TO THE USE THEREOF AS HERBICIDES” (Bayer Aktiengesellschaft, priority 2019, published 2022).
# Legend:
# ALOMY [1] = assay: Pre-emergence herbicidal effect against ALOMY; assay type: in vivo, Alopecurus myosuroides; details: 320 g/ha, scored visually after 3 weeks vs untreated controls, 100% = plants have died
# Excerpt: (§1) Seeds of monocotyledonous and dicotyledonous weed plants and crop plants are laid out in sandy loam soil in wood-fiber pots and covered with soil. The compounds of the invention, formulated in the form of wettable powders (WP) or as emulsion concentrates (EC), are then applied to the surface of the covering soil as aqueous suspension or emulsion at a water application rate equating to 600 to 800 L/ha with addition of 0.2% wetting agent.
# (§2) After the treatment, the pots are placed in a greenhouse and kept under good growth conditions for the trial plants. The damage to the test plants is scored visually after a test period of 3 weeks by comparison with untreated controls (herbicidal activity in percent (%): 100% activity=the plants have died, 0% activity=like control plants).
# AVEFA [2] = assay: Pre-emergence herbicidal effect against AVEFA; assay type: in vivo, Avena fatua; details: 320 g/ha, scored visually after 3 weeks vs untreated controls, 100% = plants have died
# Excerpt: as §1, §2
# DIGSA [3] = assay: Pre-emergence herbicidal effect against DIGSA; assay type: in vivo, Digitaria sanguinalis; details: 320 g/ha, scored visually after 3 weeks vs untreated controls, 100% = plants have died
# Excerpt: as §1, §2
# LOLRI [4] = assay: Pre-emergence herbicidal effect against LOLRI; assay type: in vivo, Lolium rigidum; details: 320 g/ha, scored visually after 3 weeks vs untreated controls, 100% = plants have died
# Excerpt: as §1, §2
# SETVI [5] = assay: Pre-emergence herbicidal effect against SETVI; assay type: in vivo, Setaria viridis; details: 320 g/ha, scored visually after 3 weeks vs untreated controls, 100% = plants have died
# Excerpt: as §1, §2
# ECHCG [6] = assay: Pre-emergence herbicidal effect against ECHCG; assay type: in vivo, Echinochloa crus-galli; details: 320 g/ha, scored visually after 3 weeks vs untreated controls, 100% = plants have died
# Excerpt: as §1, §2
# ALOMY [7] = assay: Post-emergence herbicidal effect against ALOMY; assay type: in vivo, Alopecurus myosuroides; details: one-leaf stage, 80 g/ha, assessed visually after about 3 weeks vs untreated controls, 100% = plants have died
# Method: (§3) Seeds of monocotyledonous and dicotyledonous weed and crop plants are laid out in sandy loam soil in wood-fiber pots, covered with soil and cultivated in a greenhouse under good growth conditions. 2 to 3 weeks after sowing, the test plants are treated at the one-leaf stage. The compounds of the invention, formulated in the form of wettable powders (WP) or as emulsion concentrates (EC), are then sprayed onto the green parts of the plants as aqueous suspension or emulsion at a water application rate equating to 600 to 800 l/ha with addition of 0.2% wetting agent. After the test plants have been left to stand in the greenhouse under optimal growth conditions for about 3 weeks, the action of the preparations is assessed visually in comparison to untreated controls (herbicidal action in percent (%): 100% activity=the plants have died, 0% activity=like control plants).
# DIGSA [8] = assay: Post-emergence herbicidal effect against DIGSA; assay type: in vivo, Digitaria sanguinalis; details: one-leaf stage, 80 g/ha, assessed visually after about 3 weeks vs untreated controls, 100% = plants have died
# Method: as §3
# ECHCG [9] = assay: Post-emergence herbicidal effect against ECHCG; assay type: in vivo, Echinochloa crus-galli; details: one-leaf stage, 80 g/ha, assessed visually after about 3 weeks vs untreated controls, 100% = plants have died
# Method: as §3
# LOLRI [10] = assay: Post-emergence herbicidal effect against LOLRI; assay type: in vivo, Lolium rigidum; details: one-leaf stage, 80 g/ha, assessed visually after about 3 weeks vs untreated controls, 100% = plants have died
# Method: as §3
# SETVI [11] = assay: Post-emergence herbicidal effect against SETVI; assay type: in vivo, Setaria viridis; details: one-leaf stage, 80 g/ha, assessed visually after about 3 weeks vs untreated controls, 100% = plants have died
# Method: as §3
# AVEFA [12] = assay: Post-emergence herbicidal effect against AVEFA; assay type: in vivo, Avena fatua; details: one-leaf stage, 80 g/ha, assessed visually after about 3 weeks vs untreated controls, 100% = plants have died
# Method: as §3
Compound,Pre-emergence action [%] against ALOMY (ALOMY [1]),Pre-emergence action [%] against AVEFA (AVEFA [2]),Pre-emergence action [%] against DIGSA (DIGSA [3]),Pre-emergence action [%] against LOLRI (LOLRI [4]),Pre-emergence action [%] against SETVI (SETVI [5]),Pre-emergence action [%] against ECHCG (ECHCG [6]),Post-emergence action [%] against ALOMY (ALOMY [7]),Post-emergence action [%] against DIGSA (DIGSA [8]),Post-emergence action [%] against ECHCG (ECHCG [9]),Post-emergence action [%] against LOLRI (LOLRI [10]),Post-emergence action [%] against SETVI (SETVI [11]),Post-emergence action [%] against AVEFA (AVEFA [12])
CC#Cc1cc(Br)c(C2=C(OC(=O)OCC)C3(CCC(OC)CC3)NC2=O)c(C2CC2)c1 (stereo not shown) [Example P35],100%,100%,100%,100%,100%,100%,100%,100%,100%,100%,100%,–
CC#Cc1cc(C)c(C2=C(OC(=O)OCC)C3(CCCC(OCCC)C3)NC2=O)c(Br)c1 (stereo not shown) [Example Q3],100%,100%,100%,100%,100%,100%,100%,100%,100%,100%,100%,–
CC#Cc1cc(Cl)c(C2=C(OC(=O)C(C)C)C3(CCC(OCCOC)CC3)NC2=O)c(CC)c1 (stereo not shown) [Example P32],100%,–,90%,90%,100%,100%,–,–,–,–,90%,–
CC#Cc1cc(Br)c(C2=C(OC(=O)OCC)C3(CCC(OC)CC3)NC2=O)c(CC)c1 (stereo not shown) [Example P34],–,–,–,–,100%,–,100%,–,90%,–,100%,–
CC#Cc1cc(Cl)c(C2=C(OC(=O)OC)C3(CCC(OCC)CC3)NC2=O)c(CC)c1 (stereo not shown) [Example P26],100%,90%,100%,100%,100%,90%,90%,80%,100%,–,90%,–
CC#Cc1cc(Br)c(C2=C(O)C3(CCCC(OCCOC)C3)NC2=O)c(CC)c1 (stereo not shown) [Example D8],80%,–,–,–,100%,–,100%,–,90%,80%,90%,80%
CC#Cc1cc(C)c(C2=C(OC(=O)OC(C)(C)C)C3(CCCC(OCC(C)C)C3)NC2=O)c(Cl)c1 (stereo not shown) [Example Q7],80%,–,–,–,100%,–,–,–,–,–,–,–
CC#Cc1cc(Cl)c(C2=C(OC(=O)OC(C)(C)C)C3(CCC(OCCOC)CC3)NC2=O)c(CC)c1 (stereo not shown) [Example P29],80%,80%,90%,–,80%,90%,–,–,90%,–,90%,–
